Data reported in patent publication US20190099456A1, “COMPOSITION FOR PROMOTING INTERFERON LAMBDA PRODUCTION AND PRODUCTION METHOD THEREFOR” (KIKKOMAN CORPORATION, priority 2016, published 2019).

Legend:
BDCA3 DC [1] = test: Test of promoting interferon λ3 production by BDCA3 DC co-cultured with lactic acid bacteria suspension; assay type: cell-based, human; conditions: 10 μM chloroquine, 24 hours
Method: First, an MRS medium containing 10% (w/v) salt was inoculated with strain KK221 so that a concentration became 1×10^7 cells/ml, and therefore a stock solution of lactic acid bacteria was prepared. The stock solution of lactic acid bacteria was statically cultured at 30° C. for 48 to 72 hours, and then subjected to a boiling and pasteurization treatment at 95° C. for 10 minutes, and therefore a pasteurization-treated culture solution was prepared. […]
Activity of promoting interferon λ production by the prepared lactic acid bacteria suspension was evaluated as follows by using dendritic cells collected and prepared from the peripheral blood of a non-virus infected healthy subject. […]
The number of cells of each isolated DC was measured, and a cell stock solution was prepared using an IMDM medium (GIBCO) containing 25 mM D-glucose, 25 mM HEPES, and […] so that a concentration became 5×10^4 cells/ml. […]
Using the recovered culture supernatant, interferon λ3 was measured by a chemiluminescent enzyme immunoassay method according to a method described in a document of Sugiyama, et al. [Sugiyama M, et al. Hepatol Res. 42 (11): 1089-1099, 2012]. […]

BDCA3 DC [2] = test: Test of promoting cytokine production by BDCA3 DC (cytometric beads array); assay type: cell-based, human; conditions: lactic acid bacteria count/DC count=100
Method: Poly IC or the lactic acid bacteria suspension prepared by using strain KK221 according to Example 1, and BDCA3 DC were prepared and co-cultured so that lactic acid bacteria count/DC count=100, and the measurement of the activity of promoting production of various cytokines was carried out.
Note that each of TNFα, IL-10, IL-1β, IL-6, and IL-12p70 was measured by using cytometric beadsarray (CBA; Becton, Dickinson and Company).

## Poly IC
BDCA3 DC [1]
  activity of promoting interferon λ production according to addition of chloroquine: deteriorated
BDCA3 DC [2]
  production of various cytokines (TNFα, IL-10, IL-1β, IL-6, IL-12p70, interferon α, interferon λ) by BDCA3 DC: nonspecifically promoted production of TNFα, interferon α, IL-6, and the like in addition to interferon λ (IL28B)
